Key:
[1] = system: CPAE cells (calf pulmonary artery endothelial cells); test: Adhesion of CPAE endothelial cells to fibrinogen, vitronectin and fibronectin; format: cell-based, bovine
Experimental: First technique: punctual incubation of the endothelial cells with AMEP during the test.
The CPAE were detached from the culture plates by incubation with 1.5 mM EDTA and resuspended at the rate of 5×10^5 cells/ml in the adhesion buffer (140 mM NaCl, 10 mM Hepes, 5 mM glucose, 5.4 mM KCl, 2 mM CaCl2, 1 mM MgCl2, 1 mM MnCl2, pH 7.4). […] Dutcher) that had been incubated in advance for one night at 4° C. with 50 μl of purified fibrinogen (40 μg/ml in PBS; Kabi), 10 μg/ml of vitronectin (Sigma); 30 μg/ml of fibronectin (Sigma) and 1% of BSA (bovine serum albumin) as negative control. After 20 minutes of incubation of the CPAE cells at 37° C., the plate was washed twice with 200 μl of adhesion buffer and the nonspecific sites were saturated with PBS supplemented with 1% of BSA for 1 hour at 37° C. The plate was then washed again twice with the adhesion buffer containing 1% of BSA. The nonadherent cells were eliminated by washing the wells three times with 200 μl of adhesion buffer plus 1% of BSA. Measurement of the phosphatase activity of the cells enabled quantification of the adherent cells. In brief, 100 μl of paranitrophenol phosphate (Sigma) at 3 mg/ml in the acetate buffer pH containing 0.1% of X100 Triton was added to the wells and incubated for 2 h at 37° C. The reaction was stopped by the addition of 1N NaOH. The release of paranitrophenol, which indicates the number of adherent cells, was measured after reading of the absorbance at 405 nm with an ELISA reader (Titertek Twinreader). […] The remainder of the protocol was identical to the that described above with the exception that no additional incubation of the cells with AMEP was performed.

3T3 = test: Cell proliferation, tritiated thymidine incorporation; format: cell-based; conditions: 3T3, murine fibroblasts, mean±SEM
Experimental: (§1) The cells were cultured at the rate of 20,000 cells per well (96-well plate, Greiner) in the complete medium. After 24 h, the cells were cultured in a medium containing a concentration lower by half than that corresponding to the complete medium to induce the cell in phase G0/G1 of proliferation for 24 supplementary hours. The cells were then cultured for 30 h with complete medium in the presence or without the presence of AMEP. Tritiated thymidine (1 μCi per well) was then added to the cells and incubated for 18 hours. Incorporation of the tritiated thymidine by the cells was quantified by filter paper according to the protocol described for the use of a Skatron (Skatron, Lier, Norway). Radioactivity was then determined by counting after addition of scintillation liquid. The results were expressed as a percentage in relation to the control.

C51 = test: as above; format: cell-based; conditions: C51, murine cancer cells, mean±SEM
Experimental: as §1

HMVEC-d = test: as above; format: cell-based; conditions: human endothelial cells, mean±SEM
Experimental: as §1

HMVEC = test: as above; format: cell-based; conditions: human endothelial cells, mean±SEM
Experimental: as §1

MDA-MB-231 = test: as above; format: cell-based; conditions: MDA-MB-231, human cancer cells, mean±SEM
Experimental: as §1

B16F10 = test: as above; format: cell-based, murine; conditions: B16F10 cancer cells, mean±SEM
Experimental: as §1

MDA MB 231 cells = test: Athymic murine model of tumor growth; format: in vivo; conditions: nude mice, MDA MB 231 tumors; AMEP expressed in muscle after gene electrotransfer, doxycycline induction; after 14 days of treatment
Text: The cDNA of AMEP was subcloned at the Eco RV site of the vector pBi (Clonetech, Palo Alto, Calif., USA). The expression of the gene of interest in this vector was under the dependence of a promoter responding to tetracycline in an expression system involving the eukaryote gene Tet-On. The Tet-On vector expresses the transactivator rtTA (reverse tetracycline transcriptional activator) and the vector Tet-tTS expresses the silencer tTS (tetracycline transcriptional silencer). The purifications of the plasmids were performed in a manner such that no endotoxin was present (Maxi endo free Kit, Quiagen). The purified plasmid DNA was dissolved in endotoxin-free sterile 0.9% NaCl at the desired concentration.
20 μg of plasmid pBi-AMEP, 10 μg of plasmid Tet-off and 20 μg of plasmid Tet-on were dissolved in 30 μl of sterile 0.9% NaCl and injected into the tibia cranial muscle of nude or C57B1/6 mice aged 8 weeks and previously anesthetized by intraperitoneal inoculation of pentobarbital as described by Mir et al. (Mir et al., 1999). […]
The MDA-MB-231 cells, which had been previously cultured to 80% confluence, were detached, washed and resuspended in PBS at the rate of 20·10^6 cells/ml. […] The size of the tumors was monitored for 14 days after induction.

[2] = cells incubated punctually for 30 minutes prior to adhesion test, 1.4-kDa peptide 1 μg/ml, AMEP 10 μg/ml (comparable molar concentration)
[3] = cells preincubated for 24 h, same molar concentration (AMEP 10 μg/ml, 1.4-kDa peptide 1 μg/ml)

Question: How did the “inhibition of adhesion of endothelial cells on fibrinogen” value [1, 2] turn out when “AMEP: disintegrin domain of human metargidin (Met-420 to Glu-511, SEQ ID NO. 2), 91 amino acids, 9.7 kDa; recombinant or expressed in vivo by gene electrotransfer” was run?
Answer: Its value is “no significant effect”.

Question: And the “inhibition of adhesion of endothelial cells on vitronectin” value [1, 2]?
Answer: Its value is “no significant effect”.

Question: And the “inhibition of adhesion of endothelial cells on fibrinogen” value [1, 3]?
Answer: Its value is 30%.

Question: What about the “inhibition of adhesion of endothelial cells on fibronectin” value [1, 3] of the same substance?
Answer: The value was 30%.

Question: What about the “inhibition of adhesion of endothelial cells on vitronectin” value [1, 3] of the same substance?
Answer: Its value is 30%.

Question: And the “% inhibition of cell proliferation by AMEP (5 μg/ml)” value (from here on “% inhibition of cell proliferation”) (3T3)?
Answer: Its value is 9.1 ± 2.2%.

Question: And the “% inhibition of cell proliferation” value (C51)?
Answer: Its value is 0.5 ± 1.1%.

Question: What about the “% inhibition of cell proliferation” value (HMVEC-d) of the same substance?
Answer: The value was 54.2 ± 2.1%.

Question: And the “% inhibition of cell proliferation” value (HMVEC)?
Answer: The value was 52.6 ± 3.1%.

Question: What about the “% inhibition of cell proliferation” value (MDA-MB-231) of the same substance?
Answer: Its value is 17.5 ± 0.5%.

Question: And the “% inhibition of cell proliferation” value (B16F10)?
Answer: The value was 74.3 ± 7.0%.

Question: And the “inhibition of tumor volume” value (MDA MB 231 cells)?
Answer: The value was 78%.
